Results as given in PMC11189555, “Aryl amino acetamides prevent Plasmodium falciparum ring development via targeting the lipid-transfer protein PfSTART1” (Nature Communications, 2024).

Tests used:
[1] = tested on: PopD-D7 M-833 resistant clone (PfSTART1 N309K); assay: Growth inhibition assay (72 h, LDH activity); assay type: cell-based, Plasmodium falciparum; settings: for (av-uRBC) / (DMSO-uRBC) x100: PopD-D7
Procedure: (§1) The drug was then removed, and parasites were allowed to recover. Another cycle of drug treatment (3 μM M-833) was then resumed. The resistant lines were cloned out by limiting dilution (diluting the culture into a 96-well plate to achieve an average of ~0.3 parasites per well), prior to growth inhibition assays and genomic DNA (gDNA) extraction (DNeasy Blood and Tissue kit (Qiagen)[18].
(§2) Parasite growth assays with inhibitory compounds were performed as per[11] and are fully described in the Supplementary Information. […]
(§3) Growth inhibition assays. Synchronised ring-stage parasites (0.3-0.6% parasitemia, 2% haematocrit) were grown for 72 h in a serial-dilution of the compound under […]
(§4) and compound 4. Note that M-833 was first purchased from MolPort (MolPort -002-267-916) then made in-house at WEHI: the differences observed in EC50s across experiments are attributed to the different batches of M -833. For some experiments, 0, 0.25 or 2.5 mM of glucosamine (GlcN) was also added. Experiments were set up in technical duplicates or triplicates. Following a freeze -thaw cycle, lactate dehydrogenase (LDH) activity was assessed as an indicator of parasite growt h 5. 30 μL of parasite culture was incubated for 30 min in the dark with 75 μL Malstat mixture (0.1 M Tris pH 9.0, 20 g/L lactic acid, pH 7.5, 0.2% Triton-X100, 0.5 g/L acetylpyridine adenine dinucleotide (APAD, Sigma), 200 μg/mL nitroblue tetrazolium (NBT; Sigma), 1 μg/mL phenozine ethosulfate (PES; Sigma)). Absorbance was then measured at 650 nm, transformed using the formula below, plotted against the logarithm of the concentrations, and a non-linear regression (log(inhibitor) vs. response, variable slope) was calculated using GraphPad Prism to assess the half-inhibitory […]
(§5) Growth inhibition % = (1 − average(sample)− average(uRBC)) ∗ 100 […]
(§6) The DMSO samples were also used to assess growth of parasite in the presence of 0.25 and 2.5 mM GlcN (normalised by DMSO in 0 mM GlcN). […]

[2] = tested on: PopE-F10 M-833 resistant clone (PfSTART1 N330K); assay: Growth inhibition assay (72 h, LDH activity); assay type: cell-based, Plasmodium falciparum
Procedure: as §1, §2, §3, §4, §5, §6

SMILES: O=C(CNc1ccc(Cl)c(S(=O)(=O)N2CCOCC2)c1)Nc1ccc(F)c(Cl)c1 [compound 2, reference compound]
- EC50 ([1]; Plasmodium falciparum, Supplementary Table 1, PopD-D7 (N309K), 72 h, read-out: EC50): > 20 µM
- resistance of the line compared with 3D7 ([1]; PopD-D7 (N309K), Fig 4B): highly resistant
- (av-uRBC) / (DMSO-uRBC) x100 ([1]; conc. 3.04832 nM, Biological replicate 1 (2021-10-25)): 108.297
- (av-uRBC) / (DMSO-uRBC) x100 ([1]; conc. 3.04832 nM, Biological replicate 2 (2021-11-03)): 110.746
- (av-uRBC) / (DMSO-uRBC) x100 ([1]; conc. 3.04832 nM, Biological replicate 3 (2021-11-11)): 101.173
- (av-uRBC) / (DMSO-uRBC) x100 ([1]; conc. 9.14495 nM, Biological replicate 1 (2021-10-25)): 111.853
- (av-uRBC) / (DMSO-uRBC) x100 ([1]; conc. 9.14495 nM, Biological replicate 2 (2021-11-03)): 111.153
- (av-uRBC) / (DMSO-uRBC) x100 ([1]; conc. 9.14495 nM, Biological replicate 3 (2021-11-11)): 114.836
- (av-uRBC) / (DMSO-uRBC) x100 ([1]; conc. 27.4348 nM, Biological replicate 1 (2021-10-25)): 111.176
- (av-uRBC) / (DMSO-uRBC) x100 ([1]; conc. 27.4348 nM, Biological replicate 2 (2021-11-03)): 111.76
- (av-uRBC) / (DMSO-uRBC) x100 ([1]; conc. 27.4348 nM, Biological replicate 3 (2021-11-11)): 128.575
- (av-uRBC) / (DMSO-uRBC) x100 ([1]; conc. 82.3045 nM, Biological replicate 1 (2021-10-25)): 109.097
- (av-uRBC) / (DMSO-uRBC) x100 ([1]; conc. 82.3045 nM, Biological replicate 2 (2021-11-03)): 114.254
- (av-uRBC) / (DMSO-uRBC) x100 ([1]; conc. 82.3045 nM, Biological replicate 3 (2021-11-11)): 124.242
- (av-uRBC) / (DMSO-uRBC) x100 ([1]; conc. 246.914 nM, Biological replicate 1 (2021-10-25)): 110.536
- (av-uRBC) / (DMSO-uRBC) x100 ([1]; conc. 246.914 nM, Biological replicate 2 (2021-11-03)): 113.933
- (av-uRBC) / (DMSO-uRBC) x100 ([1]; conc. 246.914 nM, Biological replicate 3 (2021-11-11)): 129.518
- (av-uRBC) / (DMSO-uRBC) x100 ([1]; conc. 740.741 nM, Biological replicate 1 (2021-10-25)): 106.002
- (av-uRBC) / (DMSO-uRBC) x100 ([1]; conc. 740.741 nM, Biological replicate 2 (2021-11-03)): 112.781
- (av-uRBC) / (DMSO-uRBC) x100 ([1]; conc. 740.741 nM, Biological replicate 3 (2021-11-11)): 117.002
- (av-uRBC) / (DMSO-uRBC) x100 ([1]; conc. 2222.22 nM, Biological replicate 1 (2021-10-25)): 103.716
- (av-uRBC) / (DMSO-uRBC) x100 ([1]; conc. 2222.22 nM, Biological replicate 2 (2021-11-03)): 111.361
- (av-uRBC) / (DMSO-uRBC) x100 ([1]; conc. 2222.22 nM, Biological replicate 3 (2021-11-11)): 123.604
- (av-uRBC) / (DMSO-uRBC) x100 ([1]; conc. 6666.67 nM, Biological replicate 1 (2021-10-25)): 102.822
- (av-uRBC) / (DMSO-uRBC) x100 ([1]; conc. 6666.67 nM, Biological replicate 2 (2021-11-03)): 107.742
- (av-uRBC) / (DMSO-uRBC) x100 ([1]; conc. 6666.67 nM, Biological replicate 3 (2021-11-11)): 113.943
- (av-uRBC) / (DMSO-uRBC) x100 ([1]; conc. 20000 nM, Biological replicate 1 (2021-10-25)): 68.9276
- (av-uRBC) / (DMSO-uRBC) x100 ([1]; conc. 20000 nM, Biological replicate 2 (2021-11-03)): 85.5559
- (av-uRBC) / (DMSO-uRBC) x100 ([1]; conc. 20000 nM, Biological replicate 3 (2021-11-11)): 59.2149
- Fold change compared to 3D7 ([1]; Supplementary Table 1, EC50 on PopD-D7 vs 3D7): > 117 fold
- EC50 ([2]; Plasmodium falciparum, 72 h, Supplementary Table 1, PopE-F10 (N330K)): > 20 µM
- resistance of the line compared with 3D7 ([2]; PopE-F10 (N330K), Fig 4B): highly resistant
- (av-uRBC) / (DMSO-uRBC) x100 ([2]; PopE-F10, 3.04832 nM, biological replicate 1): 114.401
- (av-uRBC) / (DMSO-uRBC) x100 ([2]; PopE-F10, 3.04832 nM, biological replicate 2): 112.198
- (av-uRBC) / (DMSO-uRBC) x100 ([2]; PopE-F10, 3.04832 nM, biological replicate 3): 118.159
- (av-uRBC) / (DMSO-uRBC) x100 ([2]; PopE-F10, 9.14495 nM, biological replicate 1): 113.83
- (av-uRBC) / (DMSO-uRBC) x100 ([2]; PopE-F10, 9.14495 nM, biological replicate 2): 112.634
- (av-uRBC) / (DMSO-uRBC) x100 ([2]; PopE-F10, 9.14495 nM, biological replicate 3): 115.839
- (av-uRBC) / (DMSO-uRBC) x100 ([2]; PopE-F10, 27.4348 nM, biological replicate 1): 109.84
- (av-uRBC) / (DMSO-uRBC) x100 ([2]; PopE-F10, 27.4348 nM, biological replicate 2): 113.332
- (av-uRBC) / (DMSO-uRBC) x100 ([2]; PopE-F10, 27.4348 nM, biological replicate 3): 126.539
- (av-uRBC) / (DMSO-uRBC) x100 ([2]; PopE-F10, 82.3045 nM, biological replicate 1): 112.064
- (av-uRBC) / (DMSO-uRBC) x100 ([2]; PopE-F10, 82.3045 nM, biological replicate 2): 115.064
- (av-uRBC) / (DMSO-uRBC) x100 ([2]; PopE-F10, 82.3045 nM, biological replicate 3): 112.119
- (av-uRBC) / (DMSO-uRBC) x100 ([2]; PopE-F10, 246.914 nM, biological replicate 1): 108.998
- (av-uRBC) / (DMSO-uRBC) x100 ([2]; PopE-F10, 246.914 nM, biological replicate 2): 111.627
- (av-uRBC) / (DMSO-uRBC) x100 ([2]; PopE-F10, 246.914 nM, biological replicate 3): 122.435
- (av-uRBC) / (DMSO-uRBC) x100 ([2]; PopE-F10, 740.741 nM, biological replicate 1): 107.242
- (av-uRBC) / (DMSO-uRBC) x100 ([2]; PopE-F10, 740.741 nM, biological replicate 2): 111.201
- (av-uRBC) / (DMSO-uRBC) x100 ([2]; PopE-F10, 740.741 nM, biological replicate 3): 127.133
- (av-uRBC) / (DMSO-uRBC) x100 ([2]; PopE-F10, 2222.22 nM, biological replicate 1): 102.224
- (av-uRBC) / (DMSO-uRBC) x100 ([2]; PopE-F10, 2222.22 nM, biological replicate 2): 112.371
- (av-uRBC) / (DMSO-uRBC) x100 ([2]; PopE-F10, 2222.22 nM, biological replicate 3): 122.627
- (av-uRBC) / (DMSO-uRBC) x100 ([2]; PopE-F10, 6666.67 nM, biological replicate 1): 102.39
- (av-uRBC) / (DMSO-uRBC) x100 ([2]; PopE-F10, 6666.67 nM, biological replicate 2): 105.46
- (av-uRBC) / (DMSO-uRBC) x100 ([2]; PopE-F10, 6666.67 nM, biological replicate 3): 111.965
- (av-uRBC) / (DMSO-uRBC) x100 ([2]; PopE-F10, 20000 nM, biological replicate 1): 70.532
- (av-uRBC) / (DMSO-uRBC) x100 ([2]; PopE-F10, 20000 nM, biological replicate 2): 73.7076
- (av-uRBC) / (DMSO-uRBC) x100 ([2]; PopE-F10, 20000 nM, biological replicate 3): 50.604
- Fold change compared to 3D7 ([2]; Supplementary Table 1, EC50 on PopE-F10 vs 3D7): > 117 fold
